# In US20230085307A1, “PYRIDAZINONE COMPOUND AND HERBICIDE” (NISSAN CHEMICAL CORPORATION, priority 2019, published 2023):
# Columns and labels:
# barnyard grass [1] = assay: Test Example 3: herbicidal effect by foliage application, Wagner pot (Table 18, symbol H); format: in vivo, barnyard grass (Echinochloa crus-galli); details: 320 g/ha
# Summary of the method: (§1)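 Plants were sown in alluvial soil held under 0.1–0.5 cm standing water and grown 14 days in a greenhouse at 25–30 °C. An emulsifiable formulation, water-diluted to the set dose, was then sprayed onto the foliage, and effects were scored three weeks later using previously defined criteria.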
# Chinese sprangletop = assay: Test Example 3: herbicidal effect by foliage application, Wagner pot (Table 18, symbol D); format: in vivo, chinese sprangletop (Leptochloa chinensis); details: 320 g/ha
# Summary of the method: as §1
# rice flat sedge = assay: Test Example 3: herbicidal effect by foliage application, Wagner pot (Table 18, symbol E); format: in vivo, rice flat sedge (Cyperus iria); details: 320 g/ha
# Summary of the method: as §1
# southern crabgrass = assay: Test Example 5: herbicidal effect by foliage application, plastic box (Table 20, symbol F); format: in vivo, southern crabgrass (Digitaria ciliaris); details: foliage application after 14-day growth, evaluated three weeks after application; for herbicidal effect on F: southern crabgrass (evaluation grade 0-5): 320 g/ha
# Summary of the method: (§2)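 Foliar spray test: emulsion formulation diluted in water to a set application rate, sprayed onto 14-day-old plants raised in diluvial soil at 25° C to 30° C under glass. Both herbicidal effect and crop effect rated visually three weeks later.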
# green foxtail = assay: Test Example 5: herbicidal effect by foliage application, plastic box (Table 20, symbol G); format: in vivo, green foxtail (Setaria viridis); details: foliage application after 14-day growth, evaluated three weeks after application; for herbicidal effect on G: green foxtail (evaluation grade 0-5): 320 g/ha
# Summary of the method: as §2
# barnyard grass [2] = assay: Test Example 5: herbicidal effect by foliage application, plastic box (Table 20, symbol H); format: in vivo, barnyard grass (Echinochloa crus-galli); details: foliage application after 14-day growth, evaluated three weeks after application; for herbicidal effect on H: barnyard grass (evaluation grade 0-5): 320 g/ha
# Summary of the method: as §2
# wild oat = assay: Test Example 5: herbicidal effect by foliage application, plastic box (Table 20, symbol I); format: in vivo, wild oat (Avena fatua); details: foliage application after 14-day growth, evaluated three weeks after application; for herbicidal effect on I: wild oat (evaluation grade 0-5): 320 g/ha
# Summary of the method: as §2
# blackgrass = assay: Test Example 5: herbicidal effect by foliage application, plastic box (Table 20, symbol J); format: in vivo, blackgrass (Alopecurus myosuroides); details: foliage application after 14-day growth, evaluated three weeks after application; for herbicidal effect on J: blackgrass (evaluation grade 0-5): 320 g/ha
# Summary of the method: as §2
# Italian ryegrass = assay: Test Example 5: herbicidal effect by foliage application, plastic box (Table 20, symbol K); format: in vivo, Italian ryegrass (Lolium multiflorum); details: foliage application after 14-day growth, evaluated three weeks after application; for herbicidal effect on K: Italian ryegrass (evaluation grade 0-5): 320 g/ha
# Summary of the method: as §2
# windgrass = assay: Test Example 5: herbicidal effect by foliage application, plastic box (Table 20, symbol L); format: in vivo, windgrass (Apera spica-venti); details: foliage application after 14-day growth, evaluated three weeks after application; for herbicidal effect on L: windgrass (evaluation grade 0-5): 320 g/ha
# Summary of the method: as §2
# velvetleaf = assay: Test Example 5: herbicidal effect by foliage application, plastic box (Table 20, symbol M); format: in vivo, velvetleaf (Abutilon theophrasti); details: foliage application after 14-day growth, evaluated three weeks after application; for herbicidal effect on M: velvetleaf (evaluation grade 0-5): 320 g/ha
# Summary of the method: as §2
# redroot pigweed = assay: Test Example 5: herbicidal effect by foliage application, plastic box (Table 20, symbol N); format: in vivo, redroot pigweed (Amaranthus retroflexus); details: foliage application after 14-day growth, evaluated three weeks after application; for herbicidal effect on N: redroot pigweed (evaluation grade 0-5): 320 g/ha
# Summary of the method: as §2
# lambsquarters = assay: Test Example 5: herbicidal effect by foliage application, plastic box (Table 20, symbol O); format: in vivo, lambsquarters (Chenopodium album); details: foliage application after 14-day growth, evaluated three weeks after application; for herbicidal effect on O: lambsquarters (evaluation grade 0-5): 320 g/ha
# Summary of the method: as §2
# chickweed = assay: Test Example 5: herbicidal effect by foliage application, plastic box (Table 20, symbol P); format: in vivo, common chickweed (Stellaria media); details: foliage application after 14-day growth, evaluated three weeks after application; for herbicidal effect on P: chickweed (evaluation grade 0-5): 320 g/ha
# Summary of the method: as §2
# persian speedwell = assay: Test Example 5: herbicidal effect by foliage application, plastic box (Table 20, symbol R); format: in vivo, Persian speedwell (Veronica persica); details: foliage application after 14-day growth, evaluated three weeks after application; for herbicidal effect on R: persian speedwell (evaluation grade 0-5): 320 g/ha
# Summary of the method: as §2
# [3] = amount of applied herbicide 320 g/ha
Structure (SMILES),herbicidal effect on barnyard grass (H) (barnyard grass [1]),herbicidal effect on Chinese sprangletop (D) (Chinese sprangletop),herbicidal effect on rice flat sedge (E) (rice flat sedge),herbicidal effect on F: southern crabgrass (evaluation grade 0-5) (southern crabgrass),herbicidal effect on G: green foxtail (evaluation grade 0-5) (green foxtail),herbicidal effect on H: barnyard grass (evaluation grade 0-5) (barnyard grass [2]),herbicidal effect on I: wild oat (evaluation grade 0-5) (wild oat),herbicidal effect on J: blackgrass (evaluation grade 0-5) (blackgrass),herbicidal effect on K: Italian ryegrass (evaluation grade 0-5) (Italian ryegrass),herbicidal effect on L: windgrass (evaluation grade 0-5) (windgrass),herbicidal effect on M: velvetleaf (evaluation grade 0-5) (velvetleaf),herbicidal effect on N: redroot pigweed (evaluation grade 0-5) (redroot pigweed),herbicidal effect on O: lambsquarters (evaluation grade 0-5) (lambsquarters),herbicidal effect on P: chickweed (evaluation grade 0-5) (chickweed),herbicidal effect on R: persian speedwell (evaluation grade 0-5) (persian speedwell),also measured
CCCC(=O)Oc1c(C)nn(C)c(=O)c1-c1c(-c2ccc(OC(F)(F)F)cc2)sc2cc(Cl)ccc12 [3-150],5 (Herbicidal rate of 90% or more (almost completely withered)),3 (Herbicidal rate of 40% or more and less than 70%),2 (Herbicidal rate of 20% or more and less than 40%),0 (Herbicidal rate of 5% or less (almost no effect)),0 (Herbicidal rate of 5% or less (almost no effect)),3 (Herbicidal rate of 40% or more and less than 70%),0 (Herbicidal rate of 5% or less (almost no effect)),0 (Herbicidal rate of 5% or less (almost no effect)),0 (Herbicidal rate of 5% or less (almost no effect)),0 (Herbicidal rate of 5% or less (almost no effect)),2 (Herbicidal rate of 20% or more and less than 40%),3 (Herbicidal rate of 40% or more and less than 70%),4 (Herbicidal rate of 70% or more and less than 90%),3 (Herbicidal rate of 40% or more and less than 70%),5 (Herbicidal rate of 90% or more (almost completely withered)),
C#CCOc1c(C)nn(C)c(=O)c1-c1c(-c2ccccc2OC)sc2cc(OC)ccc12 [3-154],3 (Herbicidal rate of 40% or more and less than 70%),2 (Herbicidal rate of 20% or more and less than 40%),3 (Herbicidal rate of 40% or more and less than 70%),0 (Herbicidal rate of 5% or less (almost no effect)),3 (Herbicidal rate of 40% or more and less than 70%),3 (Herbicidal rate of 40% or more and less than 70%),0 (Herbicidal rate of 5% or less (almost no effect)),0 (Herbicidal rate of 5% or less (almost no effect)),0 (Herbicidal rate of 5% or less (almost no effect)),0 (Herbicidal rate of 5% or less (almost no effect)),0 (Herbicidal rate of 5% or less (almost no effect)),4 (Herbicidal rate of 70% or more and less than 90%),3 (Herbicidal rate of 40% or more and less than 70%),5 (Herbicidal rate of 90% or more (almost completely withered)),3 (Herbicidal rate of 40% or more and less than 70%),
Cc1nn(C)c(=O)c(-c2c(-c3ccc(C(F)(F)F)cc3)sc3c(Cl)cccc23)c1O [4-029],3 (Herbicidal rate of 40% or more and less than 70%),0 (Herbicidal rate of 5% or less (almost no effect)),0 (Herbicidal rate of 5% or less (almost no effect)),0 (Herbicidal rate of 5% or less (almost no effect)),0 (Herbicidal rate of 5% or less (almost no effect)),0 (Herbicidal rate of 5% or less (almost no effect)),0 (Herbicidal rate of 5% or less (almost no effect)),0 (Herbicidal rate of 5% or less (almost no effect)),0 (Herbicidal rate of 5% or less (almost no effect)),4 (Herbicidal rate of 70% or more and less than 90%),0 (Herbicidal rate of 5% or less (almost no effect)),0 (Herbicidal rate of 5% or less (almost no effect)),3 (Herbicidal rate of 40% or more and less than 70%),5 (Herbicidal rate of 90% or more (almost completely withered)),0 (Herbicidal rate of 5% or less (almost no effect)),
CCCC(=O)Oc1c(C)nn(C)c(=O)c1-c1c(-c2ccccc2CC)sc2c(Cl)cccc12 [4-063],5 (Herbicidal rate of 90% or more (almost completely withered)),3 (Herbicidal rate of 40% or more and less than 70%),4 (Herbicidal rate of 70% or more and less than 90%),0 (Herbicidal rate of 5% or less (almost no effect)),0 (Herbicidal rate of 5% or less (almost no effect)),0 (Herbicidal rate of 5% or less (almost no effect)),0 (Herbicidal rate of 5% or less (almost no effect)),0 (Herbicidal rate of 5% or less (almost no effect)),0 (Herbicidal rate of 5% or less (almost no effect)),0 (Herbicidal rate of 5% or less (almost no effect)),0 (Herbicidal rate of 5% or less (almost no effect)),3 (Herbicidal rate of 40% or more and less than 70%),1 (Herbicidal rate of 5% or more and less than 20%),0 (Herbicidal rate of 5% or less (almost no effect)),0 (Herbicidal rate of 5% or less (almost no effect)),
CCCC(=O)Oc1c(C)nn(C)c(=O)c1-c1c(-c2ccccc2SCC)sc2c(Cl)cccc12 [4-091],5 (Herbicidal rate of 90% or more (almost completely withered)),5 (Herbicidal rate of 90% or more (almost completely withered)),3 (Herbicidal rate of 40% or more and less than 70%),,,,,,,,,,,,,"Herbicidal effect by foliage application, F: southern crabgrass (southern crabgrass; [3]): 4 (Herbicidal rate of 70% or more and less than 90%); Herbicidal effect by foliage application, G: green foxtail (green foxtail; [3]): 3 (Herbicidal rate of 40% or more and less than 70%); Herbicidal effect by foliage application, H: barnyard grass (barnyard grass [2]; [3]): 3 (Herbicidal rate of 40% or more and less than 70%); Herbicidal effect by foliage application, I: wild oat (wild oat; [3]): 0 (Herbicidal rate of 5% or less (almost no effect)); Herbicidal effect by foliage application, J: blackgrass (blackgrass; [3]): 0 (Herbicidal rate of 5% or less (almost no effect)); Herbicidal effect by foliage application, K: Italian ryegrass (Italian ryegrass; [3]): 0 (Herbicidal rate of 5% or less (almost no effect)); Herbicidal effect by foliage application, L: windgrass (windgrass; [3]): 0 (Herbicidal rate of 5% or less (almost no effect)); Herbicidal effect by foliage application, M: velvetleaf (velvetleaf; [3]): 2 (Herbicidal rate of 20% or more and less than 40%); Herbicidal effect by foliage application, N: redroot pigweed (redroot pigweed; [3]): 3 (Herbicidal rate of 40% or more and less than 70%); Herbicidal effect by foliage application, O: lambsquarters (lambsquarters; [3]): 1 (Herbicidal rate of 5% or more and less than 20%); Herbicidal effect by foliage application, P: chickweed (chickweed; [3]): 0 (Herbicidal rate of 5% or less (almost no effect)); Herbicidal effect by foliage application, R: persian speedwell (persian speedwell; [3]): 4 (Herbicidal rate of 70% or more and less than 90%)"
